These results are taken from US4305953A, “Synergistic fungicidal compositions” (priority 1979, dated 1981).

Assay [1] relates to Erysiphe graminis. Put plainly: in vivo effect against powdery mildew on sprayed plants (Example 6, Table VI). The conditions noted are these: fenapronil 25 EC, benomyl 50 WP, 6 days after infection. The procedure: (§1) The in vivo effect of various mixtures of triadimefon 50 WP and benomyl 50 WP was observed against powders mildew (Erysiphe graminis). The plants were grown in plots at 20° C., under a relative humidity of 98% for 7 days. The one-week old plant were then sprayed with the test composition and after drying were […] with Erysiphe graminis. After incubation for 6 days the results were evaluated.
The procedure described in Example 5 was used but fenapronil 25 EC and benomyl 50 WP were tested. The following results have been obtained.

For the next assay, the system named is various fungi. Kind of assay: interaction / activity against various fungi in vitro, overall result in words. It is filed as cell-based.
The test system of assay [2] is lipid and sterol synthesis. The conditions noted are these: mode of action; cited from earlier work.
Assay [3] has as its system Erysiphe graminis. Kind of assay: in vivo effect against powdery mildew on sprayed plants (Example 5, Table V). The conditions noted are these: triadimefon 50 WP, benomyl 50 WP, 6 days after infection. The procedure: as §1
The test system of assay [4] is fungi which are sensitive to them. The conditions noted are these: Fritz et al. 1977; cited from earlier work.
Assay [5] has as its system obligate parasites such as real powdery mildew, blight, rust. As to conditions: cited from earlier work.

Consider `CCCCC(C#N)(Cn1ccnc1)c1ccccc1` (stereo not drawn) [fenapronil, 1H-α-butyl-α-phenylimidazol-1-yl-propanenitrile], for which the Extent of infection is reported as 43% in the assay with Erysiphe graminis [1] (concentration 12 ppm), 23% in the assay on Erysiphe graminis [1] (concentration 25 ppm) and 14% with Erysiphe graminis [1] (concentration 50 ppm). Moreover, the activity alone entry with various fungi is “extremely potent alone and has a wide field of activity”. Further, the “inhibition of lipid and sterol synthesis” value in assay [2] was “inhibiting lipid and sterol synthesis”.
For the molecule `CCCCNC(=O)n1c(NC(=O)OC)nc2ccccc21` [benomyl, methyl 1-(butylcarbamoyl)-2-benzimidazolecarbamate], the Extent of infection came to 32.2% in the assay with Erysiphe graminis [3] (concentration 3%); 23.3% in the assay on Erysiphe graminis [3] (concentration 6%); 16.3% with Erysiphe graminis [3] (concentration 12%); 78% in the assay on Erysiphe graminis [1] (concentration 12 ppm); 64% in the assay on Erysiphe graminis [1] (concentration 25 ppm); 56% with Erysiphe graminis [1] (concentration 50 ppm).
In the case of `C=CC1(C)OC(=O)N(c2cc(Cl)cc(Cl)c2)C1=O` (stereo not shown) [vinclosolin, 3-(3,5-dichlorophenyl)-5-methyl-5-vinyl-1,3-oxazolidine-2,4-dione], the “accumulation of fatty acids and triglycerides” value in assay [4] was “induce an accumulation of fatty acids and triglycerides”.
On to `CC(C)(C)C(=O)C(Oc1ccc(Cl)cc1)n1cncn1` (stereo not shown) [triadimefon, 1-(4-chlorophenoxy)-3,3-dimethyl-1-(1H)-(1,2,4-triazol-1-yl)buthan-2-one], for which the Extent of infection in the assay on Erysiphe graminis [3] (concentration 3%) was 73.5%; in the assay on Erysiphe graminis [3] (concentration 6%) it was 66.0%; with Erysiphe graminis [3] (concentration 12%), 40.6%. Besides, in the assay with various fungi, the activity alone result is reported as “entirely ineffective against the fungi tested in vitro”. Moreover, the “inhibition of lipid and sterol synthesis” value in assay [2] was “inhibiting lipid and sterol synthesis”. Besides, the “activity against obligate parasites” value in assay [5] was “effective against obligate parasites such as real powdery mildew, blight, rust”.
With `CC(C)NC(=O)N1CC(=O)N(c2cc(Cl)cc(Cl)c2)C1=O` [promidion, 3-(3,5-dichlorophenyl)-2,4-dioxo-1-(N-isopropyl)-imidazolinecarboxamide], the “accumulation of fatty acids and triglycerides” value in assay [4] is “induce an accumulation of fatty acids and triglycerides”.
